Assays:
OX2 receptor = OX2 receptor (Homo sapiens (Human), UniProt O43614); experiment: In vitro activity test (Cisbio IP-one, CHO-K1-OX2 cells, antagonism of EC80 agonist); assay type: cell-based
Procedure: (§1) (1) Preparation of a reaction buffer (1×Stimulation buffer) required for the experiment: The 5×Stimulation buffer and ddH2O in the Cisbio IP-one kit were diluted in a ratio of 1:4 for later use.
(§2) (2) Compound preparation: The compound was diluted with DMSO to obtain a 5 mM stock solution, followed by a 3.16-fold dilution to obtain 10 gradients, and then the prepared compound was diluted with the Stimulation buffer to the corresponding concentrations (4×) for later use.
(§3) (3) Cell preparation: CHO-K1-OX1 and CHO-K1-OX2 cells on the culture dish were digested with trypsin, and the cells were washed off with culture medium and collected into 5 mL centrifuge tubes. The cells were centrifuged at 1000 rpm for 5 min, and the supernatant was discarded. 3 mL of PBS was added, and the mixture was gently pipetted to be mixed well. The cells were centrifuged again at 1000 rpm for 5 min, and the supernatant was discarded. The cells were resuspended in 1×Stimulation buffer and counted using a Countstar cell counter, and the cell density was adjusted to 1.71×10^6 cells/mL for later use.
(§4) (4) Cell addition: The cell suspensions were added to assay plates at 7 μL/well (i.e., about 12,000 cells/well).
(§5) (5) Compound addition: The compound diluted with the Stimulation buffer was added to the assay plates described above at 3.5 μL/well.
(§6) (6) Reaction and incubation: After gentle shaking, the assay plates were incubated at 37° C. for 30 min.
(§7) (7) EC80 agonist addition: 4×Orexin A (OX1 receptor) and 4×Orexin 2 receptor agonist (OX2 receptor) solutions of EC80 were added at 3.5 μL/well.
(§8) (8) Reaction and incubation: After gentle shaking, the assay plates were incubated at 37° C. for 45 min.
(§9) (9) Detection reagent addition: IP1-d2 and Anti-IP1 cryptate were separately diluted in a 1:20 ratio with the Lysis & detection buffer in the Cisbio IP-one detection kit, and the diluted IP1-d2 and Anti-IP1 cryptate described above were added to the assay plates, each at 3 μL/well. After shaking, the assay plates were left to stand at room temperature for 60 min.
(§10) (10) Experimental readings: The plate was read on Envision, readings from the 665 nm and 615 nm channels were taken, and the ratio of 665 nm/615 nm readings was calculated.
(§11) Based on the antagonistic effect values of the compound sample at different concentration test points, antagonistic curves of the compound sample against the orexin receptors were fitted using GraphPad Prism software, and the IC50 was calculated.

OX1 receptor = OX1 receptor (Homo sapiens (Human), UniProt O43613); experiment: In vitro activity test (Cisbio IP-one, CHO-K1-OX1 cells, antagonism of EC80 Orexin A); assay type: cell-based
Procedure: as §1, §2, §3, §4, §5, §6, §7, §8, §9, §10, §11

Sequence of OX2 receptor (O43614 whole entry): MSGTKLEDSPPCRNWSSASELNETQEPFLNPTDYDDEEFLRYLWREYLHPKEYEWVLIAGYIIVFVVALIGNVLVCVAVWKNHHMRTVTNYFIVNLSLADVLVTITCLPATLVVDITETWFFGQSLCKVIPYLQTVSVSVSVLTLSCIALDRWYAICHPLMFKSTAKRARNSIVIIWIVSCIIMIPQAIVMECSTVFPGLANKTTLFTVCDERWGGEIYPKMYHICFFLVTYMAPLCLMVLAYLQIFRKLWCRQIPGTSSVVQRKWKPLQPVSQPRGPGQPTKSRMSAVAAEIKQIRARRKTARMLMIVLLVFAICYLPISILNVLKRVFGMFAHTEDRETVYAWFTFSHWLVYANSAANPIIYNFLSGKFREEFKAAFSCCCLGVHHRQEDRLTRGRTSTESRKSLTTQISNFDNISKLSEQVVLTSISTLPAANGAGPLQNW
Sequence of OX1 receptor (O43613 whole entry): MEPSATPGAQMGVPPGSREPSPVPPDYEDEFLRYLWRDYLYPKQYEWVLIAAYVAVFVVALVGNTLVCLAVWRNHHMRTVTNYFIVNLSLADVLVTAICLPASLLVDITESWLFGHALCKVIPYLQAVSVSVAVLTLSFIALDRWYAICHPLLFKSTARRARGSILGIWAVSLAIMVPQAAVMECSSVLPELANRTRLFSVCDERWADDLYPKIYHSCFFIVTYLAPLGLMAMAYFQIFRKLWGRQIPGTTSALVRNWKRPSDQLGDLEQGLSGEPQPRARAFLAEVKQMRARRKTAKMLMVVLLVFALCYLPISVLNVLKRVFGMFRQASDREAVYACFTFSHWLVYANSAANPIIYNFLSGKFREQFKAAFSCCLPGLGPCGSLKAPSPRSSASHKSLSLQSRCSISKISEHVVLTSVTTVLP

Row | SMILES | IC50 (OX2 receptor) | IC50 (OX1 receptor)
1 | Cc1cc(C)nc(N2C[C@H]3CN(C(=O)c4c(-c5ncccc5C(F)(F)F)cn5ccccc45)C[C@H]3C2)n1 [Example 11, ((3aR,6aS)-5-(4,6-dimethylpyrimidin-2-yl)hexahydropyrrolo[3,4-c]pyrrol-2(1H)-yl)(2-(3-(trifluoromethyl)pyridin-2-yl)indolizin-1-yl)methanone] | 0.1 to 0.3 µM | > 1 µM
2 | Cc1cc(C)nc(N2C[C@H]3CN(C(=O)c4c(-c5cccs5)cn5ccccc45)C[C@H]3C2)n1 [Example 28] | < 0.1 µM | > 1 µM
3 | Cc1cc(C)nc(N2C[C@H]3CN(C(=O)c4c(-c5ccsc5)cn5ccccc45)C[C@H]3C2)n1 [Example 17, ((3aR,6aS)-5-(4,6-dimethylpyrimidin-2-yl)hexahydropyrrolo[3,4-c]pyrrol-2(1H)-yl)(2-(thiophen-3-yl)indolizin-1-yl)methanone] | < 0.1 µM | 
4 | Cc1cc(C)nc(N2C[C@H]3CN(C(=O)c4c(-c5ccccn5)cn5cc(F)ccc45)C[C@H]3C2)n1 [Example 19, ((3aR,6aS)-5-(4,6-dimethylpyrimidin-2-yl)hexahydropyrrolo[3,4-c]pyrrol-2(1H)-yl)(6-fluoro-2-(pyridin-2-yl)indolizin-1-yl)methanone] | < 0.1 µM | > 1 µM
5 | O=C(c1c(-c2ncccc2F)cn2ccccc12)N1C[C@@H]2CN(c3cnc4ccccc4n3)C[C@@H]2C1 [Example 10, (2-(3-Fluoropyridin-2-yl)indolizin-1-yl)((3aR,6aS)-5-(quinoxalin-2-yl)hexahydropyrrolo[3,4-c]pyrrol-2(1H)-yl)methanone] | 0.1 to 0.3 µM | > 1 µM
6 | Cc1cc(C)nc(N2C[C@H]3CN(C(=O)c4c(-c5ccccc5F)cn5ccccc45)C[C@H]3C2)n1 [Example 15, ((3aR,6aS)-5-(4,6-dimethylpyrimidin-2-yl)hexahydropyrrolo[3,4-c]pyrrol-2(1H)-yl)(2-(2-fluorophenyl)indolizin-1-yl)methanone] | < 0.1 µM | > 1 µM
7 | Cc1cc(C)nc(N2C[C@H]3CN(C(=O)c4c(-c5ncccc5F)cn5cc(F)ccc45)C[C@H]3C2)n1 [Example 18, ((3aR,6aS)-5-(4,6-dimethylpyrimidin-2-yl)hexahydropyrrolo[3,4-c]pyrrol-2(1H)-yl)(6-fluoro-2-(3-fluoropyridin-2-yl)indolizin-1-yl)methanone] | < 0.1 µM | > 1 µM
8 | Cc1cc(C)nc(N2C[C@H]3CN(C(=O)c4c(-c5ccc(C)s5)cn5ccccc45)C[C@H]3C2)n1 [Example 4, ((3aR,6aS)-5-(4,6-dimethylpyrimidin-2-yl)hexahydropyrrolo[3,4-c]pyrrol-2(1H)-yl)(2-(5-methylthiophen-2-yl)indolizin-1-yl)methanone] | < 0.1 µM | > 1 µM
9 | Cc1cc(C)nc(N2C[C@H]3CN(C(=O)c4c(-c5ccccn5)cn5ccccc45)C[C@H]3C2)n1 [Example 2, ((3aR,6aS)-5-(4,6-dimethylpyrimidin-2-yl)hexahydropyrrolo[3,4-c]pyrrol-2(1H)-yl)(2-(pyridin-2-yl)indolizin-1-yl)methanone] | 0.1 to 0.3 µM | > 1 µM
10 | Cc1cc(C)nc(N2C[C@H]3CN(C(=O)c4c(-c5ccccn5)nn5ccccc45)C[C@H]3C2)n1 [Example 6, ((3aR,6aS)-5-(4,6-dimethylpyrimidin-2-yl)hexahydropyrrolo[3,4-c]pyrrol-2(1H)-yl)(2-(pyridin-2-yl)pyrazolo[1,5-a]pyridin-3-yl)methanone] | < 0.1 µM | > 1 µM
11 | Cc1cc(C)nc(N2C[C@H]3CN(C(=O)c4c(-c5ccccc5)nn5ccncc45)C[C@H]3C2)n1 [Example 13, ((3aR,6aS)-5-(4,6-dimethylpyrimidin-2-yl)hexahydropyrrolo[3,4-c]pyrrol-2(1H)-yl)(2-phenylpyrazolo[1,5-a]pyrazin-3-yl)methanone] | 0.1 to 0.3 µM | > 1 µM
12 | Cc1nc(N2C[C@H]3CN(C(=O)c4c(-c5ccccn5)cn5ccccc45)C[C@H]3C2)nc(C)c1F [Example 24, ((3aR,6aS)-5-(5-fluoro-4,6-dimethylpyrimidin-2-yl)hexahydropyrrolo [3,4-c]pyrrol-2(1H)-yl)(2-(pyridin-2-yl)indolizin-1-yl)methanone] | < 0.1 µM | > 1 µM
13 | Cc1cc(C)nc(N2C[C@H]3CN(C(=O)c4c(-c5ccccc5)cn5ccccc45)C[C@H]3C2)n1 [Example 1, ((3aR,6aS)-5-(4,6-dimethylpyrimidin-2-yl)hexahydropyrrolo[3,4-c]pyrrol-2(1H)-yl)(2-phenylindolizin-1-yl)methanone] | 0.1 to 0.3 µM | > 1 µM
14 | Cc1cc(C)nc(N2C[C@H]3CN(C(=O)c4c(-c5ccccc5)nn5ncccc45)C[C@H]3C2)n1 [Example 14, ((3aR,6aS)-5-(4,6-dimethylpyrimidin-2-yl)hexahydropyrrolo[3,4-c]pyrrol-2(1H)-yl)(2-phenylpyrazolo[1,5-b]pyridazin-3-yl)methanone] | 0.1 to 0.3 µM | > 1 µM
15 | Cc1cc(C)nc(N2C[C@H]3CN(C(=O)c4c(-c5ncco5)cn5ccccc45)C[C@H]3C2)n1 [Example 20, ((3aR,6aS)-5-(4,6-dimethylpyrimidin-2-yl)hexahydropyrrolo[3,4-c]pyrrol-2(1H)-yl)(2-(oxazol-2-yl)indolizin-1-yl)methanone] | < 0.1 µM | > 1 µM
16 | Cc1cc(C)nc(N2C[C@H]3CN(C(=O)c4c(-c5ccccc5)nn5cccnc45)C[C@H]3C2)n1 [Example 12, ((3aR,6aS)-5-(4,6-dimethylpyrimidin-2-yl)hexahydropyrrolo[3,4-c]pyrrol-2(1H)-yl)(2-phenylpyrazolo[1,5-a]pyrimidin-3-yl)methanone] | 0.1 to 0.3 µM | > 1 µM
17 | Cc1nc(N2C[C@H]3CN(C(=O)c4c(-c5ncccc5F)cn5ccccc45)C[C@H]3C2)nn2cccc12 [Example 8, (2-(3-Fluoropyridin-2-yl)indolizin-1-yl)((3aR,6aS)-5-(4-methylpyrrolo [2,1-f][1,2,4]triazin-2-yl)hexahydropyrrolo[3,4-c]pyrrol-2(1H)-yl)methanone] | < 0.1 µM | > 1 µM
18 | Cc1cc(C)nc(N2C[C@H]3CN(C(=O)c4c(-c5ncccn5)cn5ccccc45)C[C@H]3C2)n1 [Example 21, ((3aR,6aS)-5-(4,6-dimethylpyrimidin-2-yl)hexahydropyrrolo[3,4-c]pyrrol-2(1H)-yl)(2-(pyrimidin-2-yl)indolizin-1-yl)methanone] | < 0.1 µM | > 1 µM
19 | Cc1nc(N2C[C@H]3CN(C(=O)c4c(-c5ncccc5F)cn5ccccc45)C[C@H]3C2)nc2ccoc12 [Example 7, (2-(3-fluoropyridin-2-yl)indolizin-1-yl)((3aR,6aS)-5-(4-methylfuro [3,2-d]pyrimidin-2-yl)hexahydropyrrolo[3,4-c]pyrrol-2(1H)-yl)methanone] | < 0.1 µM | > 1 µM
20 | Cc1cc(C)nc(N2C[C@H]3CN(C(=O)c4c(-c5nccs5)cn5ccccc45)C[C@H]3C2)n1 [Example 9, ((3aR,6aS)-5-(4,6-dimethylpyrimidin-2-yl)hexahydropyrrolo[3,4-c]pyrrol-2(1H)-yl)(2-(thiazol-2-yl)indolizin-1-yl)methanone] | 0.1 to 0.3 µM | > 1 µM

Source: patent US20250188095A1, “DISUBSTITUTED OCTAHYDROPYRROLO[3,4-c]PYRROLYL METHYL KETONE DERIVATIVE AND USE THEREOF” (JIANGSU NHWA PHARMACEUTICAL CO., LTD, priority 2022, published 2025)
